From paper PMC7290864, “Allosteric Antagonism of the A2A Adenosine Receptor by a Series of Bitopic Ligands” (Cells, 2020)

Legend:
human A2AAR [1] = target: T1, human A2AAR (Homo sapiens, UniProt P29274); assay: [^3H]CGS21680 radioligand binding, HEK293 membranes; settings: for [^3H]CGS21680 binding, percent effect of the fluorophore amide alone: at a concentration of 10 µM; for Ki: 5 nM [^3H]CGS21680, membranes, 25 °C, 60 min
T1 construct: expressed in transfected cells; host or cells: HEK293 cells stably expressing the human A2AAR
T1 sequence (P29274 whole entry): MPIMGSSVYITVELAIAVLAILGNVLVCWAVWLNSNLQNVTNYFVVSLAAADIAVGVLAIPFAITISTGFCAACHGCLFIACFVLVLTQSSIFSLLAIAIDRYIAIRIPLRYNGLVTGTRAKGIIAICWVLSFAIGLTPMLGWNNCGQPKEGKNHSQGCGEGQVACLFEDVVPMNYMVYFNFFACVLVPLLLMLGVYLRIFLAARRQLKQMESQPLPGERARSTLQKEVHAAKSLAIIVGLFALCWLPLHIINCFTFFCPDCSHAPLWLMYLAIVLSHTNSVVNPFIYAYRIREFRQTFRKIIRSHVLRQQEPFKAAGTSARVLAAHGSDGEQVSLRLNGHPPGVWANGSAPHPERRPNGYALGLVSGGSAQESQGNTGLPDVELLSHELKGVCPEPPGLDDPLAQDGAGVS
Protocol: (§1) HEK293 cells expressing the human A2AAR were cultured in DMEM supplemented with 10% fetal bovine serum, 100 Units/mL penicillin, 100 µg/mL streptomycin and 2 µmol/mL glutamine. To prepare cell membranes, cells were detached from plates by scraping into PBS and centrifuged at 250× g for 5 min. The resulting pellets were re-suspended in ice-cold Tris-HCl buffer (50 mM, pH 7.4) and homogenized. After homogenization and suspension, cells were first centrifuged at 1000× g for 10 min and the pellet was discarded. The suspension was then re-centrifuged at 20,000× g for 60 min at 4 °C. The pellets were re-suspended, split into aliquots and stored at −80 °C. The protein concentration was measured using the Bradford assay.
(§2) Radioligand binding assays were performed using membranes prepared from HEK293 cells expressing human the A2AAR using both agonist and antagonist radioligands as previously described. […] (5 nM) or [^3H]ZM241385 (1 nM) and membrane preparations (20 μg protein) at 25 °C for 60 min in a total of 200 μL of Tris-HCl buffer (50 mM, pH 7.5) containing 10 mM MgCl2. […] Binding reactions were terminated by filtration through Whatman GF/B filters under reduced pressure using an MT-24 cell harvester (Brandell, Gaithersburg, MD, USA) followed by washing twice with 5 mL of cold Tris-HCl buffer.
(§3) Functional parameters were calculated using Prism 8.1.0 software (GraphPAD, San Diego, CA, USA). Data were expressed as mean ± standard error. Data were analyzed by analysis of variance (ANOVA) followed by post hoc analysis to check the statistical difference among groups with p < 0.05 being considered significant.

human A2AAR [2] = target: T1, human A2AAR; assay: cAMP accumulation assay, antagonism of CGS21680 with Schild analysis; type: cell-based; settings: for Kb / Functional Antagonism Slope (Schild): Schild analysis, CGS21680-induced cAMP; for Kb: antagonist pretreatment 20 min, read-out: Functional Antagonism KB; for Functional Antagonism Slope (Schild): linear part of plot only for XAC630, MRS7396, HMA; for Pattern of A2AAR antagonism: from functional antagonism and Schild analysis
Protocol: HEK293 cells stably expressing the human A2AAR were seeded in 96-well plates and incubated in 100 µL medium at 37 °C overnight. The medium was removed the following day and cells were then treated with assay buffer containing rolipram (10 μM) and antagonists for 20 min followed by the addition of agonists, and then incubated for 20 min. The reaction was terminated upon removal of the supernatant and addition of 100 µL Tween-20 (0.3%). Intracellular 3′,5′-cyclic adenosine monophosphate (cAMP) levels were measured with an ALPHAScreen cAMP assay kit as instructed by the manufacturer (PerkinElmer, Boston, MA, USA).
as §3
To examine and analyze mechanistically the patterns of functional antagonism by various antagonists of different chemical entities, cells expressing relatively low A2AAR levels with minimal signaling amplification were used, as recommended, since receptor overexpression is related to the constitutive activity, and signaling amplification has been linked to changing the patterns of antagonism.

human A2AAR [3] = target: T1, human A2AAR; assay: [^3H]ZM241385 radioligand binding, HEK293 membranes; settings: for Ki: WT receptor, 1 nM [^3H]ZM241385, membranes, 25 °C, 60 min
Protocol: as §1, §2, §3

human A2AAR [4] = target: T1, human A2AAR; assay: Fluorescent ligand MRS7416 binding to intact HEK293 cells (flow cytometry); settings: for Ki: displacement of 15 nM fluorescent MRS7416, intact cells, 37 °C, 60 min; for Times weaker in displacing MRS7416 binding than radioligand binding: fluorescent versus radioligand Ki
Protocol: Cells were plated in 96-well plates and grow overnight. In saturation binding experiments with fluorescent antagonist MRS7416, various concentrations were incubated in cell culture medium with control HEK293 cells or HEK293 cells expressing the A2AAR for 60 min at 37 °C in an atmosphere containing 5% CO2. […] At the end the reaction, the medium was removed, and cells were washed twice with PBS. After washing, 0.2 mL 0.1% EDTA solution was added to each well, and cells were incubated at 37 °C for 10 min. Following cell detachment and mixing of cells, the intensity of fluorescence emission of each sample was measured by using flow cytometry as previously described. […] Samples were maintained in the dark during the analysis to avoid photobleaching. Mean fluorescence intensity (MFI) was determined in the FL-1 channel in log mode. Ten thousand events were analyzed per sample. Data were collected using Cell Quest Pro software (BD, Franklin Lakes, NJ, USA) and analyzed by Cyflogic v. 1.2.1 software (CyFlo, Ltd., Turku, Finland).

D52N mutant A2AAR = target: T2, D52N mutant A2AAR (Homo sapiens, UniProt P29274, D52N); assay: [^3H]ZM241385 binding to D52N mutant A2AAR expressed in HEK293 cells; settings: for Ki: 1 nM [^3H]ZM241385
T2 construct: expressed in transfected cells; host or cells: HEK293 cells
T2 sequence (P29274 whole entry D52N): as the sequence (P29274 whole entry) above, with D52N counted along it
Protocol: as §2
Here we examined if HMA and MRS7396 behave in a similar manner or not.
Data were from three independent experiments performed in duplicate.

A2AAR D52A mutation = test system: A2AAR D52A mutation; design: method as in Massink et al. [10],[11]; settings: ref Massink et al. [10],[11]; cited from earlier work

| SMILES | [^3H]CGS21680 binding, percent effect of the fluorophore amide alone (human A2AAR [1]) [%] | Kb (human A2AAR [2]) [nM] | Functional Antagonism Slope (Schild) (human A2AAR [2]) | Pattern of A2AAR antagonism (human A2AAR [2]) | Ki (human A2AAR [3]) [nM] | Ki (human A2AAR [1]) [nM] | Ki (human A2AAR [4]) [nM] | Fold weaker at WT than at the D52N mutant receptor (D52N mutant A2AAR; [^3H]ZM241385 binding) | Times weaker in displacing MRS7416 binding than radioligand binding (human A2AAR [4]) | Fold more potent in binding in comparison to MRS7416 (human A2AAR [3]; radioligand binding) [fold] | Kd (human A2AAR [4]; saturation binding, intact cells, n = 6, read-out: Kd value from MRS7416 saturation experiments) [nM] | Ki (D52N mutant A2AAR) [µM] | Fold affinity decrease at D52N versus WT (D52N mutant A2AAR; [^3H]ZM241385 binding) [fold] | Fold decrease of affinity by D52A mutation (A2AAR D52A mutation) |
| --- | --- | --- | --- | --- | --- | --- | --- | --- | --- | --- | --- | --- | --- | --- |
| N=c1ccc2c(-c3ccc(C(N)=O)cc3C(=O)O)c3ccc(N)c(S(=O)(=O)O)c3oc-2c1S(=O)(=O)O [AF488-amide] | 3.7 ± 1.2 | – | – | – | – | – | – | – | – | – | – | – | – | – |
| CCCn1c(=O)c2[nH]c(-c3ccc(OCC(=O)NCCNC(=O)CCNC(=O)CCCCNC(=O)CCCCCNC(=O)c4ccc(-c5c6ccc(=N)c(S(=O)(=O)O)c-6oc6c(S(=O)(=O)O)c(N)ccc56)c(C(=O)O)c4)cc3)nc2n(CCC)c1=O [XAC488] | – | 650 ± 120 | 1.03 ± 0.05 | antagonized competitively | 388 ± 62 | 438 ± 110 | – | – | – | – | – | – | – | – |
| NC(=O)CCCCCNC(=O)COc1ccc(/C=C/C2=[N+]3C(=Cc4ccc(-c5cccs5)n4[B-]3(F)F)C=C2)cc1 [BY630-amide] | 2.6 ± 1.5 | – | – | – | – | – | – | – | – | – | – | – | – | – |
| CCCn1c(=O)c2[nH]c(-c3ccc(OCC(=O)NCCNC(=O)CCNC(=O)CCCCNC(=O)CCCCCN)cc3)nc2n(CCC)c1=O [XAC245] | – | 280 ± 33 | 0.68 ± 0.04 | allosteric A2AAR antagonists | 198 ± 33 | 220 ± 36 | 152 ± 29 | – | – | – | – | – | – | – |
| NC(N)=NC(=O)c1nc(Cl)c(N2CCCCCC2)nc1N [HMA, 5-(N,N-hexamethylene)amiloride, reference compound] | – | 3810 ± 450 | 0.59 ± 0.05 | – | 3050 ± 1210 | 2120 ± 510 | 18500 ± 2800 | – | 9–100 times | – | – | 15.8 | 5 | over 10 fold |

More lines, main results first:

| [^3H]CGS21680 binding, percent effect of the fluorophore amide alone (human A2AAR [1]) [%] | Kb (human A2AAR [2]) [nM] | Functional Antagonism Slope (Schild) (human A2AAR [2]) | Pattern of A2AAR antagonism (human A2AAR [2]) | Ki (human A2AAR [3]) [nM] | Ki (human A2AAR [1]) [nM] | Ki (human A2AAR [4]) [nM] | Fold weaker at WT than at the D52N mutant receptor (D52N mutant A2AAR; [^3H]ZM241385 binding) | Times weaker in displacing MRS7416 binding than radioligand binding (human A2AAR [4]) | Fold more potent in binding in comparison to MRS7416 (human A2AAR [3]; radioligand binding) [fold] | Kd (human A2AAR [4]; saturation binding, intact cells, n = 6, read-out: Kd value from MRS7416 saturation experiments) [nM] | SMILES | Ki (D52N mutant A2AAR) [µM] | Fold affinity decrease at D52N versus WT (D52N mutant A2AAR; [^3H]ZM241385 binding) [fold] | Fold decrease of affinity by D52A mutation (A2AAR D52A mutation) |
| --- | --- | --- | --- | --- | --- | --- | --- | --- | --- | --- | --- | --- | --- | --- |
| – | – | – | – | 13.3 ± 6.5 | – | 23 ± 4.6 | – | – | – | – | N#Cc1c(N)nc(SCc2ncc[nH]2)c(C#N)c1-c1ccc(O)cc1 [LUF5834, 2-amino-4-(4-hydroxyphenyl)-6-[(1H-imidazol-2-ylmethyl)thio]-3,5-pyridinecarbonitrile, reference compound] | – | – | – |
| – | 1.7 ± 0.34 | 0.42 ± 0.02 | allosteric A2AAR antagonists | 2.34 ± 0.33 | 2.83 ± 0.2 | 256 ± 33 | ~ 3 fold | 9–100 times | 10 | – | Nc1nc2c(cnn2CCCc2ccc(OCC(=O)NCCCCNC(=O)CCCCCNC(=O)COc3ccc(/C=C/C4=[N+]5C(=Cc6ccc(-c7cccs7)n6[B-]5(F)F)C=C4)cc3)cc2)c2nc(-c3ccco3)nn12 [MRS7396] | 0.00079 ± 0.00023 | – | – |
| – | 51.1 ± 12.2 | 0.47 ± 0.04 | allosteric A2AAR antagonists | 36.6 ± 10.1 | 29 ± 5.7 | 692 ± 173 | – | 9–100 times | – | – | CCCn1c(=O)c2[nH]c(-c3ccc(OCC(=O)NCCNC(=O)CCCCCNC(=O)COc4ccc(/C=C/C5=[N+]6C(=Cc7ccc(-c8cccs8)n7[B-]6(F)F)C=C5)cc4)cc3)nc2n(CCC)c1=O [XAC630, reference compound] | – | – | – |
| – | 6.61 ± 0.88 | 0.88 ± 0.06 | – | 6.24 ± 2.42 | 4.98 ± 1.13 | 5.28 ± 1.31 | – | – | – | – | Nc1nc2c(cnn2CCCc2ccc(OCc3ccc(S(=O)(=O)O)cc3)cc2)c2nc(-c3ccco3)nn12 [MRS7352] | – | – | – |
| – | 9.11 ± 1.77 | 0.68 ± 0.03 | allosteric A2AAR antagonists | 23.8 ± 5.6 | 16.4 ± 1.6 | – | – | – | – | 17.6 ± 4.1 | N=c1ccc2c(-c3ccc(C(=O)NCCCCNC(=O)COc4ccc(CCCn5ncc6c5nc(N)n5nc(-c7ccco7)nc65)cc4)cc3C(=O)O)c3ccc(N)c(S(=O)(=O)O)c3oc-2c1S(=O)(=O)O [MRS7416] | – | – | – |
